# Assay results: patent publication US20080075730A1, “Methods and compositions for treating biofilms” (priority 2003, published 2008)
# Assays:
# [1] = test system: Pseudomonas aeruginosa PA14 wild-type; assay: microbe, parasite or virus in culture; assay type: cell-based
# Procedure: (§1) Antimicrobial susceptibility testing. Antibiotic, metal and biocide susceptibility tests were performed. Antimicrobials were arranged into arrays in microtitre plates that typically consisted of serial two-fold dilutions along the rows of wells (the challenge plates). The first and last wells of every row were used as sterility and growth controls, respectively. […] Biofilms were rinsed with PBS (to remove loosely adherent planktonic cells) and inserted into the challenge plates. After exposure, biofilms were rinsed once in PBS and inserted into microtitre plates containing […] of recovery medium in each well (LB broth, 5 mM GSH, 5 mM L-cys, 1% v/v tween-20). These biofilms were disrupted into the recovery medium using a sonicator, and the recovered cells were serially diluted and plated for viable cell counting. Spot plates from these experiments were incubated for a minimum of 36 h at 35° C. before enumeration. Minimum inhibitory concentration (MIC) values were determined by reading the optical density at 650 nm (OD650) of challenge plates after 72 h at 35° C. using a THERMOmax microplate reader with SOFTMAX PRO data analysis software (Molecular Devices, Sunnyvale, Calif.).
# (§2) For susceptibility testing, growth-curve data were used to calibrate incubation times to produce biofilms of similar cell density. […] In this model system, planktonic cells shed from the surface of biofilms served as the inoculum for MIC determinations.
# [2] = test system: Pseudomonas aeruginosa PA14 SCV; assay: MIC determination, planktonic cells shed from biofilms (MBEC P&G device); assay type: cell-based; details: SCV; planktonic cells; OD650 after 72 h at 35° C.; mean ± SD of four trials
# Procedure: as §1, §2
# [3] = test system: Pseudomonas aeruginosa PA14 gacS^−; assay: as above; assay type: cell-based; details: gacS^−; planktonic cells; OD650 after 72 h at 35° C.; mean ± SD of four trials
# Procedure: as §1, §2
# [4] = test system: Pseudomonas aeruginosa PA14 wild-type biofilms; assay type: cell-based
# Text: (§3) Biofilm formation. Biofilms were aerobically cultivated using the MBEC high-throughput (HTP) or Physiology and Genetics (P&G) device (Innovotech, Edmonton, Canada) as described in the manufacturer's instructions and by Ceri et al. (1999). To summarize, the parts of this batch culture apparatus were used in two ways. The top half of the plastic MBEC™-HTP device is a lid with 96 polystyrene pegs that also fits over a standard 96-well microtitre plate. For Biofilm growth, the bottom half was either (1) a corrugated trough that guided 22 mL of inoculum across the pegs when the device was placed on a rocker at 3.5 rocks per min (HTP format), or (2) a microtitre plate with […] of inoculum in each well that was placed on a gyrorotary shaker at 150 r.p.m. (P&G format). For either assay format, the inoculum was prepared to c. 10^7CFU/mL1 of the desired strain and the inoculated device was incubated at 35° C. and 95% relative humidity for the required time. Unless otherwise noted, all experiments utilized the MBEC P&G assay. Pegs from the devices were collected at specific time points for scanning electron microscopy and scanning confocal laser microscopy. Biofilm cell densities were evaluated by breaking pegs from the lid of the MBEC device with sterile pliers, rinsing the peg in PBS, and subsequent viable-cell counting as described above. PBS containing the […] surfactant Tween-20 (1% v/v) was used to assist in recovery of bacteria from the peg surfaces. Pegs were sonicated for 30 min in an Aquasonic model 250HT ultrasonic cleaner (VWR International, Mississauga, Canada). Samples of broth culture were collected at the same time points and viable cell counts were determined in a similar manner.
# as §1, §2
# [5] = test system: Pseudomonas aeruginosa PA14 SCV biofilms; assay: Biofilm susceptibility testing (viable cell counts, log-killing, MBEC99.9); assay type: cell-based
# Text: as §3, §1, §2
# [6] = test system: Pseudomonas aeruginosa PA14 gacS^− biofilms; assay: as above; assay type: cell-based
# Text: as §3, §1, §2
# [7] = test system: Pseudomonas aeruginosa PA14 gacS^− biofilms; assay: Frequency of SCV cells arising from 24-h biofilms exposed for 18 h; assay type: cell-based; details: for frequency of SCVs (phenotypic variants) among surviving cells, in words: 18 h exposure of 24-h biofilms; for Log-survival / SCV frequency: LB broth, antibiotic 1.25 μg mL^−1, overnight (18 h)
# Procedure: In an alternative set of experiments, the frequency of SCV cells arising from 24-h biofilms of P. aeruginosa PA14 gacS was evaluated. Antibiotics were diluted from stock solutions into LB broth to obtain final concentrations of […]. These were arranged in triplicate in a micro-titre plate. Biofilms were incubated in these low concentrations of antibacterials for 18 h at 35° C. and 95% relative humidity. Goat and human serum were also assayed in this array, and were kind gifts from The Life and Environmental Sciences Animal Care Facility at the University of Calgary, Department of Biological Sciences. After exposure, biofilms were treated in a manner identical to that described above.
# Frequency of phenotypic variation. During the course of susceptibility assays, the proportion of SCV cells recovered from biofilms after exposure to Ag^+ or H2O2 was increased relative to the corresponding growth controls. It was queried whether this may be true for other antimicrobial agents or growth conditions. An array of clinically used antibiotics, saline, and goat and human sera were examined for an ability to select for these SCVs from 24-h biofilms of P. aeruginosa PA14 gacS. Biofilms were exposed to these agents for 18 h and each assay was performed in triplicate. Viable cell counts were determined for each exposure condition, and log-survival was determined. The proportion of SCV cells in bacterial populations recovered from these exposure conditions was calculated as the mean of the proportions from each individual trial.
# [8] = test system: Pseudomonas aeruginosa PA14 gacS^− biofilms; assay: as above; assay type: cell-based; details: LB broth; antibiotic 1.25 μg mL^−1; overnight (18 h)
# [9] = test system: P. aeruginosa PA14 gacA biofilms; assay: Antibiotic susceptibility profiling of biofilms with the MBEC device; assay type: cell-based, Pseudomonas aeruginosa; details: in words
# Procedure: Growth Conditions, Sample Analysis and Bio-Assays of Pseudomonas aeruginosa. Biofilm and planktonic growth studies were performed using the Calgary Biofilm Device (CBD) (MBEC™ Biofilm Technologies Limited). Pseudomonas aeruginosa PA14 wild type, gacA and toxA strains were grown for 24 hours in Tryptic Soy Broth (BDH). Biofilm and planktonic populations were sampled at points.
# Sampling of biofilm populations was achieved by dislodging a peg from the 96 peg lid, whereas planktonic populations were sampled by removing an aliquot from the growth vessel. Biofilms were disrupted to release individual component cells by sonication. Cell counts of both populations were determined by serial dilution in 0.9% saline and spot plating on Tryptic Soy Agar plates (BDH). Antibiotic susceptibility profiling of P. aeruginosa PA14 wild type, toxA and gacA strains was performed using the MBEC™ device as per manufacturer's instructions (MBEC™ Biofilm Technologies Limited).
# [10] = LB broth, 4 μg mL^−1, 2 h exposure
molecule,measurement,setting,value
[Ag+] [Ag^+],differences in planktonic cell susceptibility between the different strains,"[1]; wild type vs gacS^− vs SCV, log2 difference or less",no significant differences
same,MIC72 h,"[1]; wild type, planktonic cells, OD650 after 72 h at 35° C., mean ± SD of four trials",40 ± 20 µM
same,MIC72 h,[2],40 ± 0 µM
same,MIC72 h,[3],40 ± 10 µM
same,concentration at which the vast majority of cell viability was lost,"[4]; PA14 wt biofilms, 2 h exposure (FIG. 15)",0.04 mM
same,MBEC99.9,"[4]; wild type biofilms, 2 h exposure, 3 log10 reduction in viable cells",0.08 ± 0.05 mM
same,concentration to which biofilms were resistant,"[5]; SCV biofilms, 2 h exposure (FIG. 15)",2.4 mM
same,MBEC99.9,"[5]; SCV biofilms, 2 h exposure, 3 log10 reduction in viable cells",4.8 ± 0 mM
same,tolerance of SCV strain biofilms relative to the wild-type strain,"[5]; ratio of MBEC99.9 values, SCV vs wild type",~60 times
same,Log-survival,[6]; [10],−2.6 ± 0.1 log10 CFU peg^−1
same,No. of survivors,[6]; [10],2.4 ± 0.1 log10 CFU peg^−1
same,SCV frequency,[6]; [10],7%
same,concentration at which the vast majority of cell viability was lost,"[6]; PA14 gacS biofilms, 2 h exposure (FIG. 15)",0.02 mM
same,MBEC99.9,"[6]; gacS^− biofilms, 2 h exposure, 3 log10 reduction in viable cells",0.06 ± 0.02 mM
same,"proportion of SCV cells recovered from biofilms after exposure, relative to growth controls","[6]; susceptibility assays, in words",increased
Cc1onc(-c2ccccc2)c1C(=O)N[C@@H]1C(=O)N2[C@@H]1SC(C)(C)[C@@H]2C(=O)O [Oxacilin],"frequency of SCVs (phenotypic variants) among surviving cells, in words",[7],approximately one in three
same,Log-survival,[7],−0.9 ± 0.6 log10 CFU peg^−1
same,SCV frequency,[7],32%
same,No. of survivors,[8],5.6 ± 0.6 log10 CFU peg^−1
CO/N=C(\C(=O)N[C@@H]1C(=O)N2C(C(=O)O)=C(CSc3nc(=O)c(O)nn3C)CS[C@H]12)c1csc(N)n1 [Ceftrioxone],"frequency of SCVs (phenotypic variants) among surviving cells, in words",[7],approximately one in three
same,Log-survival,[7],+0.4 ± 0.5 log10 CFU peg^−1
same,SCV frequency,[7],29%
same,No. of survivors,[8],6.8 ± 0.5 log10 CFU peg^−1
polymixin B,biofilm resistance relative to PA14 wild type or toxA control strain,[9],moderately decreased resistance
NC[C@H]1O[C@H](O[C@H]2[C@H](O)[C@@H](O[C@H]3O[C@H](CO)[C@@H](O)[C@H](N)[C@H]3O)[C@H](N)C[C@@H]2N)[C@H](N)C[C@@H]1O [Tobramicin],"frequency of SCVs (phenotypic variants) among surviving cells, in words",[7],approximately one in five
same,Log-survival,[7],−1.0 ± 0.5 log10 CFU peg^−1
same,SCV frequency,[7],14%
same,No. of survivors,[8],5.4 ± 0.5 log10 CFU peg^−1
CC[C@H]1OC(=O)[C@H](C)[C@@H](O[C@H]2C[C@@](C)(OC)[C@@H](O)[C@H](C)O2)[C@H](C)[C@@H](O[C@@H]2O[C@H](C)C[C@H](N(C)C)[C@H]2O)[C@](C)(O)C[C@@H](C)CN(C)[C@H](C)[C@@H](O)[C@]1(C)O [azythromycin],biofilm resistance relative to PA14 wild type or toxA control strain,[9],moderately decreased resistance
C[C@H]1[C@H](NC(=O)/C(=N\OC(C)(C)C(=O)O)c2csc(N)n2)C(=O)N1S(=O)(=O)O [Azetronam],Log-survival,[7],−2.6 ± 0.5 log10 CFU peg^−1
same,SCV frequency,[7],24%
same,No. of survivors,[8],4.5 ± 0.5 log10 CFU peg^−1
